Experimental data: patent US20070274915A1, “Modulation Of Anergy And Methods For isolating Anergy-Modulating Compounds” (priority 2003, published 2007)
Where a SMILES comes first, the peptide text is derived from it. The star is where a group is joined. Cbz = O=C(OCc1ccccc1)*

Experiments:
D5 T cells = assay: Ionomycin-induced anergy in D5 Th1 cells, immunoblot of signaling proteins and E3 ligases; assay type: cell-based, murine
Procedure: (§1) The murine D5 (Ar-5) Th1 cell clone was grown as previously described (F. Macian et al., Cell 109, 719-31 (2002). CD4+ cells were isolated from spleen and lymph nodes of DO11.10 or 2B4 TCR-transgenic mice using positive selection with anti-CD4 magnetic beads (Dynal), and differentiated into Th1 cells for 2 weeks using standard protocols (id.). Anergy was induced by treating primary Th1 cells or the D5 Th1 clone (10^6 cells/ml) with 1 μM ionomycin for 16 hours, Cyclosporin A was included in some experiments at a concentration of 2 μM. The cells were then washed to remove the ionomycin and incubated at higher cell density (˜3×10^6 cells/ml) for 1-2 hours at 37 C. In the experiment of FIG. 14, a high-density incubation step was included. The extent of anergy induction was evaluated by intracellular cytokine staining or in standard proliferation assays (id.). Restimulation of D5 cells was done with 1 μg/ml anti-CD3 with or without 2.5 μg/ml anti-CD28 or with 20 nM PMA or 1 μM Ionomycin or both. HEK 293 cells were grown and transfected with Ca2+ phosphate using standard protocols.
D5 cells were extracted at 10^6 cells/10 μl in RIPA buffer (20 mM Tris pH 7.5, 250 mM NaCl, 1 mM DTT, 10 mM MgCl2, 1% Nonidet P-40, 0.1% SDS, 0.5% sodium deoxycholate) supplemented with protease and phosphatase inhibitors (1 mM PMSF, 25 μg/ml aprotinin, 25 μg/ml leupeptin, 10 mM NaF, 8 mM β glycerophosphate, 0,1 mM sodium ortho vanadate). For assessing protein levels in cell extracts, 5-30 μl of RIPA extracts were separated on 9-12% SDS-polyacrylamide gels, and proteins were electrotransferred onto nitrocellulose membranes. For immunoprecipitations, 500-1000 μl of RIPA cell extracts were used. For coimmunoprecipitations from lysates of transfected HEK 293 cells, cells from one 10 cm dish were lysed in 50 mM Hepes pH 7.5, 100 mM NaCl, 1 mM EDTA, 0,5% NP-40 and 10% glycerol including phosphatase and protease inhibitors. Lysates were precleared with either protein A- or protein G-Sepharose, immunoprecipitations were performed for 4 hrs and the resulting precipitates were washed 3-4 times with the buffer used for cell extraction. Immunoblots were performed with antibody solutions in 5% milk and TBS (10 mM TrisCl (pH 8.0), 150 mM NaCl) and washes were done in TBS containing 0.05% Tween-20.

AND T cell blasts = assay: Stability of mature immunological synapses on lipid bilayers after phospholipase inhibitors; assay type: cell-based
Procedure: (§2) Planar bilayers were prepared essentially as described in (Grakoui et al., Science 285, 221-7 (1999)), except that the MCC88-103 peptide was loaded on the GPI-IEk for 24 hours. Bilayers were prepared using Oregon green labeled GPI-IEk and Cy5 labeled GPI-ICAM-1 in parallel plate flow cells (Bioptechs). Control and ionomycin treated cells were injected into the flow cell at a density of 10^6 cells/ml. Areas of bilayers where cells were forming synapses were imaged using FITC and Cy5 optics on an Olympus IX-70 inverted microscope equipped with a amamtsu ORCA-ER digital camera and a Xenon-arc lamp as a light source for fluorescence microscopy. […] Bright field, interference reflection (IRM) and fluorescence images were collected and processed using the Metamorph software. The background from the fluorescence images was subtracted using the produce background correction image function which is based on median filtering to subtract background that is nonuniform. Percentage of cells adhering were analyzed by comparing bright field and IRM images.
Experiments using phospholipase inhibitors were performed using AND T cell blasts (day 8). […] After 60 minutes, fields containing stable immunological synapses with central MHC clusters (green) and complete ICAM-1 rings (red) were imaged and the locations recorded using an automated stage and IPLab software. […]

HEK 293 cells = assay: PLC-γ1 ubiquitination in transfected HEK 293 cells; assay type: cell-based; settings: 3 μM ionomycin for 30 min
Procedure: FIG. 17C is a chart and a set of immunoblots illustrating that Itch induces mono-, di- and poly-ubiquitination of PLC-γ1. HEK 293 cells were transfected in duplicate with expression vectors coding for HA-tagged ubiquitin, AU.1-tagged PLC-γ1 and/or myc-tagged Itch as indicated, and one culture of each pair was stimulated with 3 μM ionomycin for 30 min before cell extraction. Cell extracts were immunoprecipitated with AU.1 antibodies and analyzed for ubiquitin-modified or total immunoprecipitated PLC-γ1 (upper two panels), or were directly analyzed for PLC-γ1 and Itch expression by immunoblotting (lower two panels).
as §1, with “The extent of anergy induction was evaluated by intracellular cytokine staining or in standard proliferation assays (id.). Restimulation of D5 cells was done with 1 μg/ml anti-CD3 with or without 2.5 μg/ml anti-CD28 or with 20 nM PMA or 1 μM Ionomycin or both. HEK 293 cells were grown and transfected with Ca2+ phosphate using standard protocols.” left out

D5 cells = assay: Real-time RT-PCR of E3 ligase and PLC-γ1 mRNA levels in D5 cells; assay type: cell-based, murine; settings: ionomycin-treated T cells
Procedure: Total RNA was prepared from untreated or ionomycin-pretreated D5 cells using Ultraspec reagent (Biotecx). cDNAs were synthesized from 2 μg of total RNA as template, using a cDNA synthesis kit (Invitrogen). Quantitative real time-PCR was performed in an I-Cycler (BioRad) using a SYBR Green PCR kit (Applied Biosystems). The sequences of the primer pairs are as follows:
Thermal cycling conditions were 95° C. for 5 min, then 40 cycles of 95° C., 65° C., and 72° C. for 30 sec each, terminating with a single cycle at 72° C. for 5 min. Signals were captured during the polymerization step (72° C.). A threshold was set in the linear part of the amplification curve, and the number of cycles needed to reach it was calculated for each gene. Melting curve analysis and agarose gel electrophoresis were performed to test the purity of the amplified bands. Normalization was performed by using L32 levels as an internal control for each sample. The ratio of mRNA levels in ionomycin-treated or ionomycin/CsA treated to untreated samples were determined.

[1] = test system: Th1 cells from BALB/c mice; assay: Pulse-chase of PKCθ in Th1 cells; assay type: cell-based; settings: ionomycin 16 h, pulse-chase with plate-bound anti-CD3
Procedure: FIG. 21 is a set of autoradiograms illustrating calcineurin-dependent degradation of PKCθ in anergic T cells. Th1 cells from BALB/c mice were left untreated or pretreated with ionomycin for 16 h, pulse-labeled for 2 h with ^35S cysteine/methionine, washed and stimulated with plate-bound anti-CD3 antibody during the indicated chase periods. PKCθ immunoprecipitates were analyzed by autoradiography.
CD4 cells were isolated via dynal beads selection, cells were starved for 1 hr in cysteine/methionine free media and incubated for 2 hrs with 100 μCi/ml 35S-cysteine and -methionine. Cells were washed, resuspended in complete media and stimulated with 2 μg/ml anti-CD3 on crosslinking antibody coated plates. Cells were extracted in RIPA buffer and immunoprecipitations performed as described above. Immunoprecipitates were resolved on SDS-PAGE, that were treated with Enhance solution (NEN), dried and used for autoradiographs. Densitometric analysis was performed using IQ-Mac vs 1.2 software.

[2] = test system: TH1 cells from 5CC7 TCR-transgenic mice; assay: Immune synapse formation by 5CC7 TCR-transgenic TH1 cells on lipid bilayers; assay type: cell-based; settings: 5CC7 T cells pretreated with ionomycin for 16 h
Procedure: as §2
The formation of immune synapses was evaluated as described for the experiments shown in FIG. 19, with TH1 cells from wild-type or Cblb−/− 5CC7 TCR-transgenic mice and lipid bilayers displaying ICAM-1 and I-Ek pigeon cytochrome C (PCC) molecules. […] Below the image series is a histogram that quantifies the imaging results. […]

CC(C)C[C@@H](C=O)NC(=O)[C@H](CC(C)C)NC(=O)[C@H](CC(C)C)NC(=O)OCc1ccccc1 [MG132] (Cbz-Leu-Leu-Leu-aldehyde)
PLC-γ1 degradation (D5 T cells; ionomycin 16 h, then incubation with 10 μM MG132): did not prevent
accumulation of a modified (mono-ubiquitinated) form of PKCθ (D5 T cells; only in anergized T cells, long exposure): increased the accumulation

COc1ccc2c(c1)CC[C@@H]1[C@@H]2CC[C@]2(C)[C@@H](NCCCCCCN3C(=O)C=CC3=O)CC[C@@H]12 [U73122]
U73122 concentrations at which the effects were observed (AND T cell blasts; 3 independent experiments): 0.1 to 1 µM
effect on established mature synapses (AND T cell blasts; added after mature synapses formed): disintegration of the outer LFA-1 ring

C[C@H](CCC(=O)O)C[C@H](C)C[C@H](C)C(=O)/C=C(\O)[C@H](C)C[C@H](C)C/C=C/[C@@H](C)[C@@H](O)[C@@H](C)[C@@H](O)C[C@@H]1CC[C@@](C)([C@H]2CC[C@@](C)([C@@H](C)O)O2)O1 [ionomycin]
PLC-γ1 ubiquitination (HEK 293 cells): induced PLC-γ1 ubiquitination
PLC-γ1, PKCθ and RasGAP protein levels (D5 T cells; D5 T cells, ionomycin pretreatment followed by cell-cell contact, immunoblot): pronounced decrease
increase in total protein ubiquitination (D5 T cells; ionomycin pretreatment, D5 T cells): ~2 fold
Cbl-b protein induction (D5 T cells; ionomycin-treated D5 cells): even more highly induced
Itch protein levels, increase (D5 T cells; ionomycin-treated D5 cells): ~3 fold
Nedd4 protein levels (D5 T cells; ionomycin-treated D5 cells): no change
Tsg101 protein levels, increase (D5 T cells; ionomycin-treated D5 cells): ~3 fold
PLC-γ1 mRNA levels (D5 cells): remained constant
PKCθ turnover versus mock-treated T cells [1]: significantly more rapidly
synapse stability [2]: synapse disorganization
time to form the mature synapse on contact with the bilayer [2]: < 5 min
